Target: T1, Recombinant human renin (Homo sapiens, UniProt P00797)
T1 construct: isolate the active form (residues 67-406); made in house; host or cells: FreeStyle 293-F cells (transient expression of pcDNA3.1(+)/hREN)
T1 sequence (P00797 67-406): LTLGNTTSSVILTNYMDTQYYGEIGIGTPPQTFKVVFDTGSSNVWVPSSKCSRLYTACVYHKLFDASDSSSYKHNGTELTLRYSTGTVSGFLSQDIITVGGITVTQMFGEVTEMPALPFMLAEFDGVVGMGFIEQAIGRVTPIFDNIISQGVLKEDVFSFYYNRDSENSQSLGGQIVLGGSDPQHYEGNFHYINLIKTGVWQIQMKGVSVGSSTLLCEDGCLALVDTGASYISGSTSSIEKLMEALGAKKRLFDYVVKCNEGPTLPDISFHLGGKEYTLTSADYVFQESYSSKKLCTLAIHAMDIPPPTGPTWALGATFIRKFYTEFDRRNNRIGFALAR
Test: In vitro enzymatic activity assay of renin inhibitors (fluorogenic peptide substrate)
Format: biochemical
Settings: read-out: IC50 of Exemplified Compounds Against Renin
Outline: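 Enzyme: recombinant human renin, 3 nM final, 10 min compound pre-incubation at 37 °C; buffer 50 mM Hepes pH 7.4 with 0.1 mg/mL BSA or extra 2% BSA; 5% DMSO.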

IC50 [nM] | Compound
> 1000 | COCCCn1c([C@@H]2CCCN(C(=O)C[C@H](N)Cc3ccc4ccccc4c3)C2)nc2cccc(C)c21 [Compound 107, (R)-3-Amino-1-((R)-3-(1-(3-methoxypropyl)-7-methyl-1H-benzo[d]imidazol-2-yl)piperidin-1-yl)-4-(naphthalen-2-yl)butan-1-one]
< 100 | COCCCn1c([C@@H]2CCCN(C(=O)C[C@H](N)Cc3ccc(-c4ccnc(F)c4)cc3)C2)nc2ccccc21 [Compound 150, (R)-3-amino-4-(4-(2-fluoropyridin-4-yl)phenyl)-1-((R)-3-(1-(3-methoxypropyl)-1H-benzo[d]imidazol-2-yl)piperidin-1-yl)butan-1-one]
100 to 1000 | COCCCn1c([C@@H]2CCCN(C(=O)C[C@H](N)Cc3ccc(-c4c(C)noc4C)cc3)C2)nc2ccccc21 [Compound 166, (R)-3-amino-4-(4-(3,5-dimethylisoxazol-4-yl)phenyl)-1-((R)-3-(1-(3-methoxypropyl)-1H-benzo[d]imidazol-2-yl)piperidin-1-yl)butan-1-one]
> 1000 | COCCCn1c(C2CC(C)CN(C(=O)C[C@H](N)Cc3ccc4ccccc4c3)C2)nc2ccccc21 (stereo partly drawn) [Compound 246, (3R)-3-amino-1-(3-(1-(3-methoxypropyl)-1H-benzo[d]imidazol-2-yl)-5-methylpiperidin-1-yl)-4-(naphthalen-2-yl)butan-1-one]
< 100 | COCCCn1c([C@@H]2CCCN(C(=O)C[C@H](N)Cc3ccc(-c4ccccc4C)cc3)C2)nc2ccccc21 [Compound 157, (R)-3-amino-1-((R)-3-(1-(3-methoxypropyl)-1H-benzo[d]imidazol-2-yl)piperidin-1-yl)-4-(2′-methylbiphenyl-4-yl)butan-1-one]
100 to 1000 | COCCCn1c([C@@H]2CCCN(C(=O)C[C@H](N)Cc3ccc(-n4ccccc4=O)cc3)C2)nc2ccccc21 [Compound 207]
100 to 1000 | COCCCn1c([C@@H]2CCCN(C(=O)[C@@H]3CN(S(=O)(=O)c4cccc(Cl)c4Cl)C[C@H]3N)C2)nc2ccccc21 [Compound 363, ((3R,4S)-4-amino-1-(2,3-dichlorophenyisulfonyl)pyrrolidin-3-yl)((R)-3-(1-(3-methoxypropyl)-1H-benzo[d]imidazol-2-yl)piperidin-1-yl)methanone]
< 100 | COCCCn1c([C@@H]2CCCN(C(=O)C[C@H](N)Cc3ccc(-c4ccc5c(c4)OCCO5)cc3)C2)nc2c(F)cccc21 [Compound 455, (R)-3-amino-4-(4-(2,3-dihydrobenzo[b][1,4]dioxin-6-yl)phenyl)-1-((R)-3-(4-fluoro-1-(3-methoxypropyl)-1H-benzo[d]imidazol-2-yl)piperidin-1-yl)butan-1-one]
> 1000 | COCCCn1c([C@@H]2CCCN(C(=O)C[C@H](N)CNC(=O)Nc3ccccc3C(=O)OC)C2)nc2ccccc21 [Compound 329, methyl 2-(3-((S)-2-amino-4-((R)-3-(1-(3-methoxypropyl)-1H-benzo[d]imidazol-2-yl)piperidin-1-yl)-4-oxobutyl)ureido)benzoate]
< 100 | COCCCn1c([C@@H]2CCCN(C(=O)C[C@H](N)Cc3ccc(-c4ccccc4F)cc3)C2)nc2ccccc21 [Compound 160, (R)-3-amino-4-(2′-fluorobiphenyl-4-yl)-1-((R)-3-(1-(3-methoxypropyl)-1H-benzo[d]imidazol-2-yl)piperidin-1-yl)butan-1-one]
100 to 1000 | COCCCn1c([C@@H]2CCCN(C(=O)C[C@H](N)Cc3ccc(N4CCN(c5ccccc5)C(=O)C4)cc3)C2)nc2ccccc21 [Compound 233, 4-(4-((R)-2-amino-4-((R)-3-(1-(3-methoxypropyl)-1H-benzo[d]imidazol-2-yl)piperidin-1-yl)-4-oxobutyl)phenyl)-1-phenylpiperazin-2-one]
100 to 1000 | COCCCn1c([C@@H]2CCCN(C(=O)[C@@H]3CN(C(=O)c4ccc(Cl)c(Cl)c4)C[C@H]3N)C2)nc2ccccc21 [Compound 365, ((3R,4S)-4-amino-1-(3,4-dichlorobenzoyl)pyrrolidin-3-yl)((R)-3-(1-(3-methoxypropyl)-1H-benzo[d]imidazol-2-yl)piperidin-1-yl)methanone]
< 100 | COCCCn1c([C@@H]2CCCN(C(=O)C[C@H](N)Cc3ccc(-c4ccc(NC(=O)CO)cc4)cc3)C2)nc2ccccc21 [Compound 198, N-(4′-((R)-2-Amino-4-((R)-3-(1-(3-methoxypropyl)-1H-benzo[d]imidazol-2-yl)piperidin-1-yl)-4-oxobutyl)biphenyl-4-yl)-2-hydroxyacetamide]
100 to 1000 | COCCCn1c([C@@H]2CCCN(C(=O)C[C@H](N)CNC(=O)c3ccc(-c4ccccc4)cc3)C2)nc2ccccc21 [Compound 264, N-((S)-2-amino-4-((R)-3-(1-(3-methoxypropyl)-1H-benzo[d]imidazol-2-yl)piperidin-1-yl)-4-oxobutyl)biphenyl-4-carboxamide]
< 100 | COCCCn1c([C@@H]2CCCN(C(=O)C[C@H](N)Cc3ccc(-c4ccc5c(c4)CC(=O)N5C)cc3)C2)nc2c(C)cccc21 [Compound 498, 5-(4-((R)-2-amino-4-((R)-3-(1-(3-methoxypropyl)-4-methyl-1H-benzo[d]imidazol-2-yl)piperidin-1-yl)-4-oxobutyl)phenyl)-1-methylindolin-2-one]
> 1000 | N[C@@H](CCl)C(=O)N1CCCC(c2nc3ccccc3[nH]2)C1 (stereo partly drawn) [Compound 60, (2R)-1-(3-(1H-benzo[d]imidazol-2-yl)piperidin-1-yl)-2-amino-3-chloropropan-1-one]
100 to 1000 | COCCCn1c([C@@H]2CCCN(C(=O)C[C@H](N)CNC(=O)c3cccc(-c4noc(C)n4)c3)C2)nc2ccccc21 [Compound 303, N-((S)-2-amino-4-((R)-3-(1-(3-methoxypropyl)-1H-benzo[d]imidazol-2-yl)piperidin-1-yl)-4-oxobuty)-3-(5-methyl-1,2,4-oxadiazol-3-yl)benzamide]
100 to 1000 | COCCCn1c([C@@H]2CCCN(C(=O)C[C@H](N)CNC(=O)Nc3ccccc3-c3ccccc3)C2)nc2ccccc21 [Compound 291, 1-((S)-2-amino-4-((R)-3-(1-(3-methoxypropyl)-1H-benzo[d]imidazol-2-yl)piperidin-1-yl)-4-oxobutyl)-3-(biphenyl-2-yl)urea]
< 100 | CCNC(=O)Nc1ccc(-c2ccc(C[C@@H](N)CC(=O)N3CCC[C@@H](c4nc5ccccc5n4CCCOC)C3)cc2)cc1 [Compound 173, 1-(4′-((R)-2-amino-4-((R)-3-(1-(3-methoxypropyl)-1H-benzo[d]imidazol-2-yl)piperidin-1-yl)-4-oxobutyl)biphenyl-4-yl)-3-ethylurea]
< 100 | COCCCn1c([C@@H]2CCCN(C(=O)C[C@H](N)Cc3ccc(-c4cccnc4F)cc3)C2)nc2ccccc21 [Compound 151, (R)-3-amino-4-(4-(2-fluoropyridin-3-yl)phenyl)-1-((R)-3-(1-(3-methoxypropyl)-1H-benzo[d]imidazol-2-yl)piperidin-1-yl)butan-1-one]
100 to 1000 | COCCCn1c([C@@H]2CCCN(C(=O)[C@@H]3CN(S(=O)(=O)c4cccc(-c5csc(C)n5)c4)C[C@H]3N)C2)nc2ccccc21 [Compound 364, ((3R,4S)-4-amino-1-(3-(2-methylthiazol-4-yl)phenylsulfonyl)pyrrolidin-3-yl)((R)-3-(1-(3-methoxypropyl)-1H-benzo[d]imidazol-2-yl)piperidin-1-yl)methanone]
> 1000 | COCCCn1c([C@@H]2CCCN(C(=O)[C@@H]3CN(S(=O)(=O)c4cccc(-c5noc(C)n5)c4)C[C@H]3N)C2)nc2ccccc21 [Compound 409, ((3R,4S)-4-amino-1-(3-(5-methyl-1,2,4-oxadiazol-3-yl)phenylsulfonyl)pyrrolidin-3-yl)((R)-3-(1-(3-methoxypropyl)-1H-benzo[d]imidazol-2-yl)piperidin-1-yl)methanone]
> 1000 | COCCCn1c([C@@H]2CCCN(C(=O)C[C@H](N)CNC(=O)NC3CCCC3)C2)nc2ccccc21 [Compound 332, 1-((S)-2-amino-4-((R)-3-(1-(3-methoxypropyl)-1H-benzo[d]imidazol-2-yl)piperidin-1-yl)-4-oxobutyl)-3-cyclopentylurea]
> 1000 | N[C@@H](CC(=O)N1CCCC(c2nc3ccccc3[nH]2)C1)c1ccc(Cl)cc1Cl (stereo partly drawn) [Compound 35, (3S)-1-(3-(1H-benzo[d]imidazol-2-yl)piperidin-1-yl)-3-amino-3-(2,4-dichlorophenyl)propan-1-one]
100 to 1000 | COCCCn1c([C@@H]2CCCN(C(=O)C[C@H](N)CNS(=O)(=O)c3cccc(OC)c3)C2)nc2ccccc21 [Compound 315, N-((S)-2-amino-4-((R)-3-(1-(3-methoxypropyl)-1H-benzo[d]imidazol-2-yl)piperidin-1-yl)-4-oxobutyl)-3-methoxybenzenesulfonamide]
100 to 1000 | COCCCn1c([C@@H]2CCCN(C(=O)[C@@H]3CN(S(=O)(=O)c4ccc(NC(C)=O)cc4)C[C@H]3N)C2)nc2ccccc21 [Compound 380, N-(4-((3S,4R)-3-amino-4-((R)-3-(1-(3-methoxypropyl)-1H-benzo[d]imidazol-2-yl)piperidine-1-carbonyl)pyrrolidin-1-ylsulfonyl)phenyl)acetamide]
> 1000 | COCCCn1c([C@@H]2CCCN(C(=O)CC(CN)c3ccc(Cl)cc3)C2)nc2ccccc21 (stereo partly drawn) [Compound 93, 4-amino-3-(4-chlorophenyl)-1-((R)-3-(1-(3-methoxypropyl)-1H-benzo[d]imidazol-2-yl)piperidin-1-yl)butan-1-one]
